Assay results as given in ChEMBL document CHEMBL1201862, “PubChem BioAssay data set” (2004).
Active and inactive are the calls of the source.

How the values were obtained:
[1] = biological target: Peroxisome proliferator-activated receptor gamma/Nuclear receptor coactivator 1 (Homo sapiens, UniProt P37231); test: (§1) TR-FRET dose response biochemical High Throughput Screening assay for agonists of the steroid receptor coactivator 1 (SRC-1) recruitment by the peroxisome proliferator-activated receptor gamma (PPAR gamma): non-selective agonists. [Related pubchem assays (depositor defined):AID1300, AID1808, AID504735, AID631]; assay type: protein assay
Peroxisome proliferator-activated receptor gamma/Nuclear receptor coactivator 1, sequence (P37231 whole entry): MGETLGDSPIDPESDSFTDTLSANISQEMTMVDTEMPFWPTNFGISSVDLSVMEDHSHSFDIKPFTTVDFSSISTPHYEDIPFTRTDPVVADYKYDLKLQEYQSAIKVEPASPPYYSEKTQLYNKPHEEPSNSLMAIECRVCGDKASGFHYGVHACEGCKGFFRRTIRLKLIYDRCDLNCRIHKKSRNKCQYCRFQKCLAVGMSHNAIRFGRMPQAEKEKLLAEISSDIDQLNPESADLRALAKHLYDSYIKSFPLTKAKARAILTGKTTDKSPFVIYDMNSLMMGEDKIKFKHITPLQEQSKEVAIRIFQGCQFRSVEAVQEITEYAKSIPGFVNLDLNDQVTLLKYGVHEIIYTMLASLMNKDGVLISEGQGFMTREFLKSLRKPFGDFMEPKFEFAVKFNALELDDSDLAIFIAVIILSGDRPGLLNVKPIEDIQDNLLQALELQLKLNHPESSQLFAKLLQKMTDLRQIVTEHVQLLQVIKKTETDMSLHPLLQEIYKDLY
Peroxisome proliferator-activated receptor gamma/Nuclear receptor coactivator 1, sequence (Q15788 whole entry, further chain): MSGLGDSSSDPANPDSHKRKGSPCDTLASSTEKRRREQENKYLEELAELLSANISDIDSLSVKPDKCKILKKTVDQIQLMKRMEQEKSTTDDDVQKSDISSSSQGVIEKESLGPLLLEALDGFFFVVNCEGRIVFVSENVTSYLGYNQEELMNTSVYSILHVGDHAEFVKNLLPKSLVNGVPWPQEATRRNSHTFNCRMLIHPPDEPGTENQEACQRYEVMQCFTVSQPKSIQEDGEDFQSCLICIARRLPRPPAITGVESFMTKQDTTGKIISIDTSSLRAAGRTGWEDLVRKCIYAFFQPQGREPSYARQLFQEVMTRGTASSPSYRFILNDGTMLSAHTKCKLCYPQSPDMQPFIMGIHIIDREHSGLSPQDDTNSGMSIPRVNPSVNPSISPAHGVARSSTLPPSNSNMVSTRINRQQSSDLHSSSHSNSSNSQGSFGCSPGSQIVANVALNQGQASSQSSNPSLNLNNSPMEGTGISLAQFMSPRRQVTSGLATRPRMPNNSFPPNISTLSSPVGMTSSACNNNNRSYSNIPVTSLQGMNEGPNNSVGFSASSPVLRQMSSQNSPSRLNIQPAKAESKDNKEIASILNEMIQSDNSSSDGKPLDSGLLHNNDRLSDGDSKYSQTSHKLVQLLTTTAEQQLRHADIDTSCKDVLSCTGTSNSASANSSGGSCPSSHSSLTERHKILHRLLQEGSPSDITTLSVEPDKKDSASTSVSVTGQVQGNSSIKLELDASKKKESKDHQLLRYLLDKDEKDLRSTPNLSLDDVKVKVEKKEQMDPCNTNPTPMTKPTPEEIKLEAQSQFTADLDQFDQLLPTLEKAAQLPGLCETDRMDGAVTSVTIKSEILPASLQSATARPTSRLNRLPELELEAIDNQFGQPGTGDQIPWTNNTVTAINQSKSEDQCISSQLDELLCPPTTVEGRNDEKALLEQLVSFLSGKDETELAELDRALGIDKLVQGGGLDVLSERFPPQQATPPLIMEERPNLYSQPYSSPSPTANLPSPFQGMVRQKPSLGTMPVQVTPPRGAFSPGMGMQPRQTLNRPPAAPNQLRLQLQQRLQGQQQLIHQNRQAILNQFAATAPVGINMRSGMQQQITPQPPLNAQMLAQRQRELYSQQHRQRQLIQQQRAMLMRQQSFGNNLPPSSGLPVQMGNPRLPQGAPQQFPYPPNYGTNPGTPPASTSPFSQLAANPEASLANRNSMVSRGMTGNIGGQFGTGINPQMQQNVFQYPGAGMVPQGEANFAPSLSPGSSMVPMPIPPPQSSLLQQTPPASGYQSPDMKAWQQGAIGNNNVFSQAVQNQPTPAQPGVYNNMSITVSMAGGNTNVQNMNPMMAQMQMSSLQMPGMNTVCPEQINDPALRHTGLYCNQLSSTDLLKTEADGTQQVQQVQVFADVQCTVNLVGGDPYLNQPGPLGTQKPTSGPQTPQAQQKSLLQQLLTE

[2] = biological target: Peroxisome proliferator-activated receptor gamma/Nuclear receptor coactivator 3 (Homo sapiens, UniProt P37231); test: as §1, with “3 (SRC-3)” for “1 (SRC-1)”, “assays: 1301 (Confirmation screen.), 1048 (Primary screen.)]” for “assays (depositor defined):AID1300, AID1808, AID504735, AID631]”; assay type: functional
Peroxisome proliferator-activated receptor gamma/Nuclear receptor coactivator 3, sequence (P37231 whole entry): as the sequence (P37231 whole entry) above
Peroxisome proliferator-activated receptor gamma/Nuclear receptor coactivator 3, sequence (Q9Y6Q9 whole entry, further chain): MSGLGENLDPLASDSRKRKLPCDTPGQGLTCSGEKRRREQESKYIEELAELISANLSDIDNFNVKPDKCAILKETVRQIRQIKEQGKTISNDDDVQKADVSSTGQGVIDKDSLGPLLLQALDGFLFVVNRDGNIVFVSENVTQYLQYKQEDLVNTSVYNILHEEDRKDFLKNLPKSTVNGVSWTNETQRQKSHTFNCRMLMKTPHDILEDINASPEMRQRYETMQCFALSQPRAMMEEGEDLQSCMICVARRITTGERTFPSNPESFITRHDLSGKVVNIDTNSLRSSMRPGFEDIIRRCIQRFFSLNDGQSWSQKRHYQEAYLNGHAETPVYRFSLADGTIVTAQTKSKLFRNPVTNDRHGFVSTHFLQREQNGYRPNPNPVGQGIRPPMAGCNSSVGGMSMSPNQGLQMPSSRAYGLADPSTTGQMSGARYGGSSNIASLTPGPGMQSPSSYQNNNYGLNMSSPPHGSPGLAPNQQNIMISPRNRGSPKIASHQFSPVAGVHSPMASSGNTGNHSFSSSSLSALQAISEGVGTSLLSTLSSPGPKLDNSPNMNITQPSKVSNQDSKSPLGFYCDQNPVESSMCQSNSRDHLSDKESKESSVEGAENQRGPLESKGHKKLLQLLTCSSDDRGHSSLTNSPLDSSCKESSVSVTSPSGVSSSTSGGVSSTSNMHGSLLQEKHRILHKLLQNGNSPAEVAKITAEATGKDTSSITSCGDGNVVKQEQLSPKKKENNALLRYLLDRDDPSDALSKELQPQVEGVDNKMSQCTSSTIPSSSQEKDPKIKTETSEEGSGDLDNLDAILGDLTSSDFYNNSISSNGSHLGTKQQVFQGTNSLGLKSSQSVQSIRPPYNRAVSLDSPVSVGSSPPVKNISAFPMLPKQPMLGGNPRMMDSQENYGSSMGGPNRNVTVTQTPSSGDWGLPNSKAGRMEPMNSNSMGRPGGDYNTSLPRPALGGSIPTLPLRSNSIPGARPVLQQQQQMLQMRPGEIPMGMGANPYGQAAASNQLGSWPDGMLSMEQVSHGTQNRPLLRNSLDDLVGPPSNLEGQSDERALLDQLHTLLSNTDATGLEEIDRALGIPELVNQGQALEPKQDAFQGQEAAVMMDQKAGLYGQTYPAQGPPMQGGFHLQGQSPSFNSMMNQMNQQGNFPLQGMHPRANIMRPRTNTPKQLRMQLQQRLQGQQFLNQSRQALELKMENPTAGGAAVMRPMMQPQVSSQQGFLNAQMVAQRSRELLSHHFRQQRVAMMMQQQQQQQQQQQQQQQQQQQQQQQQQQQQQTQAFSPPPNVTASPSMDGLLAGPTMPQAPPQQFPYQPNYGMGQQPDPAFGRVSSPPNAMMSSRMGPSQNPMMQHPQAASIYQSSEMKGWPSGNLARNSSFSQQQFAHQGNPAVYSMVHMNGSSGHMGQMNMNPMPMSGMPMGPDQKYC

[3] = biological target: Peroxisome proliferator-activated receptor gamma/Nuclear receptor coactivator 2 (Homo sapiens, UniProt P37231); test: TR-FRET dose response biochemical High Throughput Screening assay for agonists of the steroid receptor coactivator 2 (SRC-2) recruitment by the peroxisome proliferator-activated receptor gamma (PPAR gamma): non-selective agonists. [Related pubchem assays: 1297, 1032 ]; assay type: functional
[4] = A Cell Based Secondary Assay To Explore Cytotoxicity of Compounds that Sensitize Mycobacterium Tuberculosis to Beta-Lactam Antibiotics.; assay type: functional
[5] = biological target: Dual specificity tyrosine-phosphorylation-regulated kinase 1A (Rattus norvegicus, UniProt Q63470); assay type: biochemical, Homo sapiens
[6] = microbe, parasite or virus in culture; assay type: functional; conditions: Mycobacterium tuberculosis
[7] = THP-1 cell cytotoxicity, dose response, cytotoxicity control for non-replicating M. tuberculosis project (AID 489025); assay type: functional
[8] = HepG2 cell cytotoxicity, dose response, cytotoxicity control for non-replicating M. tuberculosis project (AID 489018); assay type: functional; conditions: Mycobacterium tuberculosis
[9] = Vero E6 cell cytotoxicity, dose response, cytotoxicity control for non-replicating M. tuberculosis project, secondary assay (AID 492998); assay type: functional, VeroE6; conditions: Vero C1008
[10] = biological target: T1, Short transient receptor potential channel 4 (Mus musculus, UniProt Q9QUQ5); test: mouse TRPC4 channel activators, dose response, cell-based, HEK293 TRPC4/mu-opioid, Fluo-4 calcium (AID 434937); assay type: functional
T1 sequence (Q9QUQ5 whole entry): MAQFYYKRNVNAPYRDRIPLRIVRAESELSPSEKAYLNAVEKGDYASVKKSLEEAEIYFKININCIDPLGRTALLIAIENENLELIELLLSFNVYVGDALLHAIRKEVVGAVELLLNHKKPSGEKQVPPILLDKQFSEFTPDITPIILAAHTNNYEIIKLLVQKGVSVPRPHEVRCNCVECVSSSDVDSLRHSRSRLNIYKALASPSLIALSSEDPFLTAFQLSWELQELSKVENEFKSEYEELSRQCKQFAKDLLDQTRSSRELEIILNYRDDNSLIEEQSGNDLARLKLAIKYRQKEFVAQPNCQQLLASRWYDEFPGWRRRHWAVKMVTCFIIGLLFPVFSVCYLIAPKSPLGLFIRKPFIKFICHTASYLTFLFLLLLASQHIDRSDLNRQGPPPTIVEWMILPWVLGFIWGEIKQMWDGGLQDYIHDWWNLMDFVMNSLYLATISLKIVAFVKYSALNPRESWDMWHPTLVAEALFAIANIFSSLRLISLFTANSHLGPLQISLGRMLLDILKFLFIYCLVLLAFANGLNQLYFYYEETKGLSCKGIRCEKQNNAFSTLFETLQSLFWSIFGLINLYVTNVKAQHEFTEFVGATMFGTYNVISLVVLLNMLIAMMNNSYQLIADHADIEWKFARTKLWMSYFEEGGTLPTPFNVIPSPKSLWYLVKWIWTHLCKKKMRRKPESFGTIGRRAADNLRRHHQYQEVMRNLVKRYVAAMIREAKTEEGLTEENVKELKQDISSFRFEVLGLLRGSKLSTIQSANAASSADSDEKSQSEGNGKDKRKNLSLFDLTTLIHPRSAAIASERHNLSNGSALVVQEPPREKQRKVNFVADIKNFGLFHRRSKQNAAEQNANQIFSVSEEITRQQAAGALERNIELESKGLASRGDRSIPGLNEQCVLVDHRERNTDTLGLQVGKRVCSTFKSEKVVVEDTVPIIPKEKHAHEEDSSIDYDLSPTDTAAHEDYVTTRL

[11] = cells; assay type: functional
[12] = biological target: Luciferin 4-monooxygenase (Photinus pyralis, UniProt P08659); test: Counter Screen for Luciferase-based Assay Positives. [Related pubchem assays: 620, 618, 411 ]
Luciferin 4-monooxygenase, sequence (P08659 whole entry): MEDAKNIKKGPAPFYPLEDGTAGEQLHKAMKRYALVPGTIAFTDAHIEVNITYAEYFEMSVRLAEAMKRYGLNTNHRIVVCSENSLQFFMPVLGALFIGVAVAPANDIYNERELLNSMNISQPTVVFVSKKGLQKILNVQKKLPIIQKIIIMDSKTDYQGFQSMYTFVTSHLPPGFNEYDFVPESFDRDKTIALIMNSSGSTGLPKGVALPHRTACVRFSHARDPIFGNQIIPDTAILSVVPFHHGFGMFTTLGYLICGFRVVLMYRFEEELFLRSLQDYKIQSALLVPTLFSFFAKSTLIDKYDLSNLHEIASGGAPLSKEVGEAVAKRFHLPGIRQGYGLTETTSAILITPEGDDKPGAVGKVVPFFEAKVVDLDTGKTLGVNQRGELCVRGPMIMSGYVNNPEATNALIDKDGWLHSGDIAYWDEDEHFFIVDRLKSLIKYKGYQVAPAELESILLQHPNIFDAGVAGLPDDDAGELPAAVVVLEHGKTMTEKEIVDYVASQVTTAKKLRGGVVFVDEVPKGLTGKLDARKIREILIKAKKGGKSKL

[13] = test system: HT-1080; test: cytotoxicity in HT1080 fibrosarcoma cells, cell-based, fluorescence readout (AID 620); assay type: functional; conditions: Homo sapiens
[14] = P. falciparum 3D7-ScDHODH growth inhibitors, dose response, SYBR Green, dry powder samples (AID 1159570); assay type: functional, cell-based;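 note: parasite growth measured after 72 hours of compound exposure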
[15] = P. falciparum Dd2 growth inhibitors, dose response, SYBR Green, cherry-picked samples (AID 1159567); assay type: functional, cell-based
[16] = P. falciparum Dd2 growth inhibitors, dose response, SYBR Green, dry powder samples (AID 1159566); assay type: functional, cell-based;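 note: potency for growth inhibition with lower SYBR green DNA signal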
[17] = HepG2 cell cytotoxicity, dose response, cytotoxicity control, cherry-picked samples (AID 1159577); assay type: functional, cell-based
[18] = P. falciparum ATP4 D1247Y mutant growth inhibitors, dose response, NITD609-resistant line, SYBR Green, dry powder (AID 1159571); assay type: functional, cell-based;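 note: parasites synchronized at ring stage by sorbitol before testing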
[19] = biological target: Cytochrome P450 3A4 (Homo sapiens, UniProt P08684); conditions: Potency;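 note: confirmatory qHTS run detecting inhibitors and substrates of CYP3A4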
Cytochrome P450 3A4, sequence (P08684 whole entry): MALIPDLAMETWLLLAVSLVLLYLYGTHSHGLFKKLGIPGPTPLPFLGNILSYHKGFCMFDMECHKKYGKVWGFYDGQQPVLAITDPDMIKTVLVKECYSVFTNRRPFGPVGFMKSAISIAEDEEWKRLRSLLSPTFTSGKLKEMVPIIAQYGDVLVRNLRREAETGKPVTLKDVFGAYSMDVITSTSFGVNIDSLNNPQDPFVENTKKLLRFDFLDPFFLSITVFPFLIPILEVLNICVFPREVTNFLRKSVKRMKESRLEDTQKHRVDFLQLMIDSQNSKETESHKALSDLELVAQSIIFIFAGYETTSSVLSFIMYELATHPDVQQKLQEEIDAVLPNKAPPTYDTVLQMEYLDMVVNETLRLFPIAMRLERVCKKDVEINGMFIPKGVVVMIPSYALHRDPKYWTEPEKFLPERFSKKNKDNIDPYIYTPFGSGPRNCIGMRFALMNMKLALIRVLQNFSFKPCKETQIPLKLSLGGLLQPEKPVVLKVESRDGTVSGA

[20] = biological target: Voltage-gated inwardly rectifying potassium channel KCNH2 (Homo sapiens, UniProt Q12809); conditions: Potency;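 note: confirmatory quantitative high-throughput screen measuring inhibition of hERG channel activity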
[21] = HepG2 cell cytotoxicity, dose response, cytotoxicity control, plate reader, dry powder samples (AID 1159569); assay type: functional, cell-based;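 note: inhibitor potency with signal falling toward the positive control level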
[22] = biological target: FAD-linked sulfhydryl oxidase ALR (Homo sapiens, UniProt P55789); test: inhibitors of human ALR sulfhydryl oxidase, dose response, biochemical, H2O2 detection, luminescence, cherry-pick (AID 493248)
[23] = test system: Vero; test: cells; assay type: functional, cell-based; conditions: Chlorocebus sabaeus

Q: Which results are given for `O=C(c1cc2c(s1)-c1ccccc1OC2)N1CCN(c2ccccn2)CC1`?
A: EC50 [1]: 33.7 µM (inactive); EC50 [2]: > 79.4 µM (not active); EC50 [3]: 23.2 µM (not active)

Q: What does the source list for `O=C(Nc1ccccc1Cl)c1csc(-c2cccnc2)n1`?
A: CC50 [4]: > 40 µM (active); AC50 [5]: 493 nM (active)

Q: With `Cc1ccc(CN2C(=O)N/C(=C\c3ccc(-c4ccc(C(=O)O)cc4C)o3)C2=O)cc1` as the compound, how does the CC50 [4] read?
A: Its CC50 is > 40 µM (active).

Q: Which results are given for `O=C(CCC1CCCC1)c1c(O)c2ccccc2oc1=O`?
A: CC50 [6]: 15.4 µM (active); CC50 [7]: 23.5 µM (active); CC50 [8]: > 20 µM (active); CC50 [9]: 14.4 µM (active); EC50 [10]: 5.96 µM (active); IC50 [11]: 8.45 µM (active)

Q: With `CC(C)C(=O)Nc1ccc(NC(=O)c2ccccn2)cn1` as the compound, how does the EC50 [12] read?
A: The EC50 was 0.44 µM (active).

Q: And the EC50 [13]?
A: Its EC50 is > 50 µM (not active).

Q: Which results are given for `COc1ccc2c3c([nH]c2c1)[C@@H](CO)N(Cc1ccccc1)CC31CCN(Cc2cncnc2)CC1`?
A: AC50 [14]: 1.27 µM (active); AC50 [15]: 2.12 µM (active); AC50 [16]: 929 nM (active); AC50 [17]: > 39 µM (inactive); AC50 [18]: 871 nM (active)

Q: Which AC50 [19] does the source give for `CN(C)c1ccc(C2(c3ccc(N(C)C)cc3)OC(=O)c3cc(N(C)C)ccc32)cc1` here?
A: Its AC50 is 7.94 µM (inconclusive).

Q: And the AC50 [20]?
A: The AC50 was 251 nM (inconclusive).

Q: With `COc1ccc(-c2ccc([C@H]3[C@H](C#N)N(C(=O)c4cccnc4)[C@H]3CO)cc2)cc1` as the compound, how does the AC50 [14] read?
A: Its AC50 is 1.15 µM (active).

Q: What about the AC50 [21] of the same compound?
A: The AC50 was > 100 µM (inactive).

Q: What about the AC50 [15] of the same compound?
A: The AC50 was 1.25 µM (active).

Q: And the AC50 [16]?
A: Its AC50 is 764 nM (active).

Q: And the AC50 [17]?
A: The AC50 was > 42 µM (inactive).

Q: And the AC50 [18]?
A: The AC50 was 586 nM (active).

Q: Which AC50 [22] does the source give for `CCCN1C(=O)c2ccccc2NC1c1ccc(OC)cc1O` (stereo not given) here?
A: Its AC50 is 12.2 µM (active).

Q: And the IC50 [23]?
A: The IC50 was 24.1 µM (active).

Q: With `CCCCc1ccc(-c2nc(-c3ccncc3)no2)cc1` as the compound, how does the EC50 [12] read?
A: The EC50 was 60.6 µM (active).

Q: And the EC50 [13]?
A: The EC50 was > 50 µM (not active).

Q: Which results are given for `O=c1oc(-c2ccccc2F)nc2c1cnn2-c1ccccc1`?
A: EC50 [1]: > 79.4 µM (inactive); EC50 [2]: > 79.4 µM (not active); EC50 [3]: > 79.4 µM (not active)

Q: With `COc1ccc2c3c([nH]c2c1)[C@H](CO)N(Cc1ccccn1)CC31CCN(Cc2cccc(F)c2)CC1` as the compound, how does the AC50 [14] read?
A: Its AC50 is 1.12 µM (active).

Q: What about the AC50 [21] of the same compound?
A: Its AC50 is 1.21 µM (active).

Q: What about the AC50 [15] of the same compound?
A: Its AC50 is 1.48 µM (active).

Q: What about the AC50 [16] of the same compound?
A: Its AC50 is 422 nM (active).

Q: And the AC50 [17]?
A: The AC50 was > 39 µM (inactive).

Q: What about the AC50 [18] of the same compound?
A: The AC50 was 559 nM (active).
